Source: patent publication EP0870499A1, “Oral use of (+)-0-Demethyltramadol as analgesic” (Grünenthal GmbH, priority 1997, dated 1998)
Like-named read-outs stand apart in the source and are kept apart here.

Key:
[1] = system: weibliche Sprague Dawly-Ratten; assay: Tail-flick test (radiant heat) in the rat; details: for ED50: Rattus norvegicus
Description: (§1) Dazu wurden männliche NMRI-Mäuse mit einem Gewicht von 20 bis 25 g oder weibliche Sprague Dawly-Ratten mit einem Gewicht von 120 bis 160 g verwendet. Die Tiere wurden einzeln in Testkäfige gesetzt und die Schwanzbasis einem fokussierten Wärmestrahl einer elektrischen Lampe (Rhema-Analgesiemeter) ausgesetzt. Die Lampenintensität wurde so eingestellt, daß die Zeit vom Einschalten der Lampe bis zum plötzlichen Wegzucken des Schwanzes (Schmerzlatenz) bei unbehandelten Tieren 3 bis 6 Sekunden betrug. Vor Gabe der erfindungsgemäß zu verwendenden Verbindung wurden die Tiere innerhalb von 5 Minuten zweimal getestet und der Mittelwert dieser Messungen als Vortestmittelwert berechnet. Die Schmerzmessung wurde 20, 40 und 60 Minuten nach intravenöser und 30, 60, 90, 120 Minuten nach oraler Gabe durchgeführt. Bei Anstieg der Schmerzlatenz wurde die maximale Expositionszeit auf 12 Sekunden beschränkt und die Zunahme der Latenzzeit von >150 % des Vortestmittelwerts als analgetische Wirkung gewertet. Zur Bestimmung der Dosisabhängigkeit wurden die Verbindungen in 3 bis 5 logarithmisch ansteigenden Dosen, die jeweils die Schwellen- und die maximale Wirkdosis einschlossen, appliziert und aus der Anzahl der Tiere, die analgetische Wirkung zeigten, nach der Methode von Litchfeld und Wilcoxon (J. Pharm. Ex. Ther. 96, 99 bis 113 (1949)) die ED50-Werte bestimmt. Die ED50-Berechnung erfolgte im Wirkmaximum jeweils 20 Minuten nach intravenöser und jeweils 30 Minuten nach oraler Substanzgabe.
(§2) Die Bestimmung der oralen Wirkverfügbarkeit erfolgte aus dem Verhältnis der ED50-Werte bei i.v.- und p.o.-Gabe. Wirkverfügbarkeit =(ED50 i.v.)/(ED50 p.o.) [formula]

[2] = system: weibliche Sprague Dawly-Ratten; details: rat, in vivo
Description: as §1, §2

[3] = system: männliche NMRI-Mäuse; assay: Tail-flick test (radiant heat) in the mouse; assay type: in vivo, Maus; details: for ED50: Mus musculus
Description: as §1, §2

[4] = Animal experiments on constipating effect (no method given); assay type: in vivo; details: compared with Morphin
[5] = system: männliche NMRI-Mäuse; assay: Phenylquinone-induced writhing test in the mouse; assay type: in vivo, Maus
Description: Die Untersuchung auf analgetische Wirksamkeit wurde im Phenylchinon-induzierten Writhing an der Maus (modifiziert nach I. C. Hendershot, J. Forsaith, J. Pharmacol. Exp. Ther. 125, 237 - 240 (1959)) durchgeführt. Dazu wurden männliche NMRI-Mäuse mit einem Gewicht von 25 bis 30 g verwendet. Gruppen von 10 Tieren pro Substanzdosis erhielten 10 Minuten nach intravenöser Gabe und 30 Minuten nach oraler Gabe der erfindungsgemäß zu verwendenden Verbindungen 0,3 ml/Maus einer 0,02 %-igen wäßrigen Lösung des Phenylchinon (Phenylbenzochinon, Fa. Sigma, Deisenhofen; Herstellung der Lösung unter Zusatz von 5 % Ethanol und Aufbewahrung im Wasserbad bei 45° C) intraperitoneal appliziert. Die Tiere wurden einzeln in Beobachtungskäfige gesetzt und mittels Drucktastenzähler die Anzahl der Schmerz-induzierten Streckbewegungen (sogenannte Writhing-Reaktionen = Durchdrücken des Körpers nach Abstrecken der Hinterextremitäten) 5 bis 20 Minuten nach der Phenylchinongabe ausgezählt. Aus der dosisabhängigen Abnahme der Writhing-Reaktionen im Vergleich zu parallel untersuchten, nur mit Phenylchinon behandelten Kontrollgruppen wurden mittels Regressionsanalyse (Auswerteprogramm Martens, EDV-Serivce, Eckental) der ED50-Wert für die Hemmung der Writhing-Reaktlon berechnet.

[6] = iv, 20 min, read-out: ED50-Werte Tail-flick, Ratte i.v.
[7] = po, 0.5 h, read-out: ED50-Werte Tail-flick, Ratte p.o.

SMILES | ED50 [1, 6] | ED50 [1, 7] | orale Wirkverfügbarkeit [2] | ED50 ([3]; iv, 20 min, read-out: ED50-Werte Tail-flick, Maus i.v.) | ED50 ([3]; po, 0.5 h, read-out: ED50-Werte Tail-flick, Maus p.o.) | orale Wirkverfügbarkeit ([3]; Tail-flick, mouse, (ED50 i.v.)/(ED50 p.o.)) | besser oral verfügbar als Morphin ([3]; mouse (tail-flick and writhing taken together), relative to Morphin) | analgetische Wirkung ([1]; Tail-flick test, rat, result in words) | orale Wirkverfügbarkeit ([1]; Tail-flick, rat, (ED50 i.v.)/(ED50 p.o.)) | besser oral verfügbar als Morphin ([1]; rat, tail-flick, relative to Morphin) | obstipierende Wirkungen [4] | analgetische Wirkung ([5]; Writhing test, result in words) | orale Wirkverfügbarkeit ([5]; Writhing, (ED50 i.v.)/(ED50 p.o.)) | ED50 ([5]; iv, 10 min, i.v., phenylquinone i.p. 10 min after dosing, read-out: ED50-Werte Writhing, Maus i.v.) | ED50 ([5]; po, 0.5 h, p.o., phenylquinone i.p. 30 min after dosing, read-out: ED50-Werte Writhing, Maus p.o.)
CN1CC[C@]23c4c5ccc(O)c4O[C@H]2[C@@H](O)C=C[C@H]3[C@H]1C5 [Morphin, reference compound] | 0.93 mg/kg | 75 mg/kg | 0,01 |  |  |  |  |  |  |  |  |  |  |  | 
CN(C)C[C@H]1CCCC[C@]1(O)c1cccc(O)c1 [(+)-O-Demethyltramadol] | 1.01 mg/kg | 4.9 mg/kg |  | 1.41 mg/kg | 3.75 mg/kg | 0,38 | ~5 mal | ausgeprägte analgetische Wirkung | 0,21 | ~20 mal | schwächere obstipierende Wirkungen als Morphin | ausgeprägte analgetische Wirkung | 0,26 | 0.49 mg/kg | 1.87 mg/kg
